Measurements as given in PubChem BioAssay (NCI).
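Values below derive from 48-hour exposures of cells grown in 96-well plates, with endpoints linearly interpolated between the two concentrations bracketing the appropriate inhibition level. GI50 = concentration required for 50% inhibition of growth. TGI: total growth inhibition.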

Experiments:
Assay in all cases: DTP human tumour cell line panel, 48 h; in the data active = GI50 below about 0.43 µM; inactive = the rest
DU-145 prostate = tested on: DU-145 prostate
MOLT-4 leukemia = tested on: MOLT-4 leukemia
SF-295 CNS = tested on: SF-295 CNS
M14 melanoma = tested on: M14 melanoma
MDA-MB-435 = tested on: MDA-MB-435
PC-3 prostate = tested on: PC-3 prostate
786-0 renal = tested on: 786-0 renal
HS 578T breast = tested on: HS 578T breast
NCI/ADR-RES ovarian = tested on: NCI/ADR-RES ovarian
BT-549 breast = tested on: BT-549 breast
HOP-92 NSCLC = tested on: HOP-92 NSCLC
MCF7 breast = tested on: MCF7 breast
NCI-H460 lung = tested on: NCI-H460 lung
COLO 205 colon = tested on: COLO 205 colon
KM12 colon = tested on: KM12 colon
UACC-62 melanoma = tested on: UACC-62 melanoma
SW-620 colon = tested on: SW-620 colon
OVCAR-4 ovarian = tested on: OVCAR-4 ovarian
LOX IMVI melanoma = tested on: LOX IMVI melanoma
RPMI-8226 leukemia = tested on: RPMI-8226 leukemia
HOP-62 NSCLC = tested on: HOP-62 NSCLC
NCI-H226 lung = tested on: NCI-H226 lung
NCI-H522 lung = tested on: NCI-H522 lung
MALME-3M melanoma = tested on: MALME-3M melanoma
UACC-257 melanoma = tested on: UACC-257 melanoma
SR leukemia = tested on: SR leukemia
IGROV1 ovarian = tested on: IGROV1 ovarian
SK-MEL-2 melanoma = tested on: SK-MEL-2 melanoma
ACHN renal = tested on: ACHN renal
U251 CNS = tested on: U251 CNS
OVCAR-8 ovarian = tested on: OVCAR-8 ovarian
SF-268 CNS = tested on: SF-268 CNS
SF-539 CNS = tested on: SF-539 CNS
SN12C renal = tested on: SN12C renal
EKVX NSCLC = tested on: EKVX NSCLC
SK-MEL-5 melanoma = tested on: SK-MEL-5 melanoma
NCI-H23 lung = tested on: NCI-H23 lung
CCRF-CEM leukemia = tested on: CCRF-CEM leukemia
SNB-75 CNS = tested on: SNB-75 CNS
HL-60(TB) leukemia = tested on: HL-60(TB) leukemia
UO-31 renal = tested on: UO-31 renal
SK-OV-3 ovarian = tested on: SK-OV-3 ovarian
SK-MEL-28 melanoma = tested on: SK-MEL-28 melanoma
A549 NSCLC = tested on: A549 NSCLC
HCT-15 colon = tested on: HCT-15 colon
T-47D breast = tested on: T-47D breast
HT29 colon = tested on: HT29 colon
TK-10 renal = tested on: TK-10 renal
HCT-116 colon = tested on: HCT-116 colon
HCC-2998 colon = tested on: HCC-2998 colon
SNB-19 CNS = tested on: SNB-19 CNS
OVCAR-5 ovarian = tested on: OVCAR-5 ovarian
MDA-MB-231 breast = tested on: MDA-MB-231 breast
CAKI-1 renal = tested on: CAKI-1 renal
OVCAR-3 ovarian = tested on: OVCAR-3 ovarian
A498 renal = tested on: A498 renal
K-562 leukemia = tested on: K-562 leukemia

O=c1n(-c2ccccc2)c(=O)n2n1C1C=CC2CCCCCC1
> 100 µM: TGI (DU-145 prostate) | TGI (MOLT-4 leukemia) | TGI (SF-295 CNS) | TGI (M14 melanoma) | TGI (MDA-MB-435) | TGI (PC-3 prostate) | TGI (786-0 renal) | TGI (HS 578T breast) | TGI (NCI/ADR-RES ovarian) | TGI (BT-549 breast) | TGI (HOP-92 NSCLC) | TGI (MCF7 breast) | TGI (NCI-H460 lung) | TGI (COLO 205 colon) | TGI (KM12 colon) | TGI (UACC-62 melanoma) | TGI (SW-620 colon) | TGI (OVCAR-4 ovarian) | TGI (LOX IMVI melanoma) | TGI (RPMI-8226 leukemia) | TGI (HOP-62 NSCLC) | TGI (NCI-H226 lung) | TGI (NCI-H522 lung) | TGI (MALME-3M melanoma) | TGI (UACC-257 melanoma) | TGI (SR leukemia) | TGI (IGROV1 ovarian) | TGI (SK-MEL-2 melanoma) | TGI (ACHN renal) | TGI (U251 CNS) | TGI (OVCAR-8 ovarian) | TGI (SF-268 CNS) | TGI (SF-539 CNS) | TGI (SN12C renal) | TGI (EKVX NSCLC) | TGI (SK-MEL-5 melanoma) | TGI (NCI-H23 lung) | TGI (CCRF-CEM leukemia) | TGI (SNB-75 CNS) | TGI (HL-60(TB) leukemia) | TGI (UO-31 renal) | TGI (SK-OV-3 ovarian) | TGI (SK-MEL-28 melanoma) | TGI (A549 NSCLC) | TGI (HCT-15 colon) | TGI (T-47D breast) | TGI (HT29 colon) | TGI (TK-10 renal) | TGI (HCT-116 colon) | TGI (HCC-2998 colon) | TGI (SNB-19 CNS) | TGI (OVCAR-5 ovarian) | TGI (MDA-MB-231 breast) | TGI (CAKI-1 renal) | TGI (OVCAR-3 ovarian)

COc1cc(NC(=O)c2ccc(C(F)(F)F)nc2Nc2ccc(Cl)cc2C)cc(OC)c1OC
28.9 µM: TGI (SF-268 CNS)
31.7 µM: TGI (NCI-H226 lung)
10.6 µM: TGI (NCI-H23 lung)
15.9 µM: TGI (UACC-62 melanoma)
13.4 µM: TGI (HCT-116 colon)
inactive: GI50 (DU-145 prostate) 11.7 µM | GI50 (MOLT-4 leukemia) 2.54 µM | GI50 (SF-295 CNS) 5.36 µM | GI50 (M14 melanoma) 4.14 µM | GI50 (A498 renal) 3.9 µM | GI50 (MDA-MB-435) 4.19 µM | GI50 (PC-3 prostate) 1.86 µM | GI50 (786-0 renal) 5.56 µM | GI50 (K-562 leukemia) 3.01 µM | GI50 (HS 578T breast) 4.65 µM | GI50 (NCI/ADR-RES ovarian) 3.62 µM | GI50 (BT-549 breast) 10.7 µM | GI50 (MCF7 breast) 2.39 µM | GI50 (NCI-H460 lung) 3.3 µM | GI50 (COLO 205 colon) 4.06 µM | GI50 (KM12 colon) 1.55 µM | GI50 (UACC-62 melanoma) 3.05 µM | GI50 (SW-620 colon) 5.92 µM | GI50 (OVCAR-4 ovarian) 2.77 µM | GI50 (LOX IMVI melanoma) 3.23 µM | GI50 (RPMI-8226 leukemia) 2.96 µM | GI50 (HOP-62 NSCLC) 5.95 µM | GI50 (NCI-H226 lung) 10.8 µM | GI50 (NCI-H522 lung) 1.61 µM | GI50 (MALME-3M melanoma) 4.94 µM | GI50 (UACC-257 melanoma) 3.4 µM | GI50 (SR leukemia) 2.77 µM | GI50 (IGROV1 ovarian) 0.958 µM | GI50 (SK-MEL-2 melanoma) 10.3 µM | GI50 (ACHN renal) 3.74 µM | GI50 (U251 CNS) 4.86 µM | GI50 (OVCAR-8 ovarian) 6.19 µM | GI50 (SF-268 CNS) 6.67 µM | GI50 (SF-539 CNS) 10.6 µM | GI50 (SN12C renal) 6.75 µM | GI50 (EKVX NSCLC) 6.34 µM | GI50 (SK-MEL-5 melanoma) 2.95 µM | GI50 (NCI-H23 lung) 2.2 µM | GI50 (CCRF-CEM leukemia) 1.58 µM | GI50 (SNB-75 CNS) 2.78 µM | GI50 (HL-60(TB) leukemia) 1.76 µM | GI50 (UO-31 renal) 2.68 µM | GI50 (SK-OV-3 ovarian) 5.15 µM | GI50 (SK-MEL-28 melanoma) 4.4 µM | GI50 (A549 NSCLC) 5.82 µM | GI50 (HCT-15 colon) 4.35 µM | GI50 (T-47D breast) 2.47 µM | GI50 (HT29 colon) 4.92 µM | GI50 (TK-10 renal) 5.83 µM | GI50 (HCT-116 colon) 3.14 µM | GI50 (HCC-2998 colon) 1.89 µM | GI50 (SNB-19 CNS) 5.77 µM | GI50 (OVCAR-5 ovarian) 10.8 µM | GI50 (MDA-MB-231 breast) 3.73 µM | GI50 (CAKI-1 renal) 3.36 µM | GI50 (OVCAR-3 ovarian) 2.41 µM
12.9 µM: TGI (NCI-H460 lung)
13.3 µM: TGI (OVCAR-3 ovarian)
10.5 µM: TGI (PC-3 prostate)
36.1 µM: TGI (SK-OV-3 ovarian)
18.8 µM: TGI (SW-620 colon)
17.1 µM: TGI (NCI/ADR-RES ovarian)
23 µM: TGI (IGROV1 ovarian)
15.2 µM: TGI (HL-60(TB) leukemia)
21.2 µM: TGI (HCT-15 colon)
18.9 µM: TGI (M14 melanoma)
48.9 µM: TGI (SNB-19 CNS)
57.3 µM: TGI (DU-145 prostate)
21.3 µM: TGI (MDA-MB-435) | TGI (T-47D breast)
5.61 µM: TGI (HCC-2998 colon)
15.5 µM: TGI (COLO 205 colon)
38.7 µM: TGI (HS 578T breast)
13.5 µM: TGI (LOX IMVI melanoma) | TGI (SR leukemia)
14.4 µM: TGI (NCI-H522 lung)
25.3 µM: TGI (OVCAR-4 ovarian)
29.1 µM: TGI (TK-10 renal)
18.5 µM: TGI (SNB-75 CNS)
27.7 µM: TGI (OVCAR-5 ovarian)
13.2 µM: TGI (KM12 colon)
16.2 µM: TGI (MCF7 breast)
26.4 µM: TGI (SK-MEL-28 melanoma)
29.5 µM: TGI (CCRF-CEM leukemia)
> 100 µM: TGI (K-562 leukemia) | TGI (OVCAR-8 ovarian) | TGI (SF-539 CNS) | TGI (EKVX NSCLC) | TGI (A549 NSCLC)
26.6 µM: TGI (BT-549 breast)
14.9 µM: TGI (SK-MEL-5 melanoma)
17.5 µM: TGI (RPMI-8226 leukemia) | TGI (U251 CNS)
19.3 µM: TGI (UACC-257 melanoma) | TGI (HT29 colon)
23.8 µM: TGI (A498 renal)
9.85 µM: TGI (CAKI-1 renal)
22.4 µM: TGI (786-0 renal)
23.1 µM: TGI (SF-295 CNS)
28.3 µM: TGI (SK-MEL-2 melanoma)
24 µM: TGI (MALME-3M melanoma)
18.2 µM: TGI (MOLT-4 leukemia) | TGI (HOP-62 NSCLC)
31 µM: TGI (SN12C renal)
35.5 µM: TGI (ACHN renal)
17.9 µM: TGI (UO-31 renal)
14.8 µM: TGI (MDA-MB-231 breast)
